Results on one substance are retold here after US4288341A, “Detergent product containing deodorant compositions” (priority 1978, dated 1981).

The test concerns the target T1, lipoxidase (EC1.13.1.13) (Glycine max, UniProt P08170).
T1 sequence (P08170 1-839): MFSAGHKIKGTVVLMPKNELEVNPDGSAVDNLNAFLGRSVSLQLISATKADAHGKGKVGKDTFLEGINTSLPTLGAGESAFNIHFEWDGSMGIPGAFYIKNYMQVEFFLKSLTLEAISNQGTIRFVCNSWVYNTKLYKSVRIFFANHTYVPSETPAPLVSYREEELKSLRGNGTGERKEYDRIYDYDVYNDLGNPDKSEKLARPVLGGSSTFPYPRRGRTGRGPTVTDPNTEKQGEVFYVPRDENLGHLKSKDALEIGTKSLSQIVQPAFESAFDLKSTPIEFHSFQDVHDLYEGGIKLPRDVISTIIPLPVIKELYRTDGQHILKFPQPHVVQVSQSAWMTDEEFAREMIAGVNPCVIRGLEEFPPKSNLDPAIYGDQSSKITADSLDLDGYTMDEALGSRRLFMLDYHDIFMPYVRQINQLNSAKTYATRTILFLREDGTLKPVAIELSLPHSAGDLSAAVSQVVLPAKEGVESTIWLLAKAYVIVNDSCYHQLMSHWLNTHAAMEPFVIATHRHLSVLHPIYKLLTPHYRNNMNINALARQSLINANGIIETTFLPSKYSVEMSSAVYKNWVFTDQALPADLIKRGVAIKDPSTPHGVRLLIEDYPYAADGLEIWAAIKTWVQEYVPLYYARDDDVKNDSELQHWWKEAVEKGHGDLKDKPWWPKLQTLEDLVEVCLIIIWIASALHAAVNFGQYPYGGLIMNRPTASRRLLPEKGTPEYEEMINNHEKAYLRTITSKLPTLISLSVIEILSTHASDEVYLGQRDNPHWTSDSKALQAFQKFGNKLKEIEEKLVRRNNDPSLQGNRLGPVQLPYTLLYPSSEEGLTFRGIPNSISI
Put plainly: Lipoxidase test: inhibition of the oxidation of linoleic acid by lipoxidase. It is filed as biochemical. The note with it: test substrate made with 0.5% by weight solution of material in ethanol; borate buffer pH 9.0; OD 234 nm.

On to Dimyrcetol, for which the “LIC (lipoxidase-inhibiting capacity, % inhibition)” value came out at 16%.
